Laboratory results: patent US4914086A, “Method for treating African human and veterinary trypanosomiases” (priority 1987, dated 1990)
“Also recorded” adds a separate entry of the source.

Legend:
[1] = system: T. b. brucei TREU 667; test: CNS model, T. b. brucei TREU 667 infection in mice (Table 4); format: in vivo, Trypanosoma brucei brucei (in Swiss-Webster mice); conditions: for efficacy in CNS model in words: TREU 667
Text: (§1) T. b. brucei EATRO 110 isolate was maintained as described (Bacchi, C. J., H. C. Nathan, S. H. Hutner, P. P. McCann and A. Sjoerdsma; Polyamine metabolism: a potential chemotherapeutic target in trypanosomes. Science 210: 332-334, 1980). It produces an acute, rapidly fatal parasitemia which is lethal to mice 3-5 days after inoculation. Two T. B. brucei strains, TREU 667 and LUMP 1001 developed by Jennings and coworkers (Jennings, F. W., D. D. Whitelaw and G. M. Urquhart; The relationship between duration of infection with Trypanosoma brucei in mice and the efficacy of chemotherapy. Parasitology 75: 143-153, 1977/Jennings, F. W. and G. D. Gray; Relapsed parasitemia following chemotherapy of chronic T. brucei infections in mice and its relation to cerebral trypanosomes; Contr. Microbiol. Immunol. 7 147-154, 1983) were used as CNS models. Both produce infections which are refractory to Berenil® (diminazene aceturate) and develop within 21 days after inoculation. They are not usually fatal until >40 days after inoculation. LUMP 1001 causes a more virulent CNS infection than TREU 667, and is regarded as more difficult to cure (Jennings, F. W. and G. D. Gray. Relapsed parasitemia following chemotherapy of chronic T. brucei infections in mice and its relation to cerebral trypanosomes. Contr. Microbiol. Immunol. 7 147-154, 1983).
The models for […] nervous system infections used TREU 667 and LUMP 1001 strains which were stored frozen and passaged once in rats before infection of mice. Maintenance and use of these screens were as described (Clarkson, A. B. Jr., C. J. Bacchi, G. H. Mellon, H. C. Nathan, P. P. McCann and A. Sjoerdsma. Efficacy of DFMO+blemoycin in a mouse model of central nervous system African trypanosomiasis. Proc. Natl. Acad. Sci. USA. 80: 5729-5733, 1983/Clarkson, A. B. Jr., E. J. Biene, C. J. Bacchi, P. P. McCann, S. H. Hutner and A. Sjoerdsma. New drug combination for experimental late stage African trypanosomiasis: DFMO with suramin. Am. J. Trop. Med. Hyg. 33: 1073-1077, 1984/Dube, D. K., G. Mpimbaza, A. C. Allison, E. Lederer and L. Rovis. Antitrypanosomal activity of sinefungin, Am. J. Trop. Med. Hyg. 32: 31-33, 1983/Fish, W. R., J. J. Marr, R. L. Berens, D. L. Looker, D. J. Nelson, S. LaFon and A. E. Balber. Inosine analogs as chemotherapeutic agents for African trypanosomes: metabolism in trypanosomes and efficacy in tissue culture. Anti-microb. Ag. Chemother. 27: 33-36, 1985/Clazer, R. I., and L. S. Lloyd. Effects of 8-azaadenosine and formycin on cell lethality and the synthesis and methylation of nucleic acids in human colon carcinoma cells in culture. Biochem. Pharmacol. 31: 3207-3214, 1982/Bacchi, C. J., H. C. Nathan, A. B. Clarkson, Jr., E. J. Bienen, A. J. Bitonti, P. P. McCann and A. Sjoerdsma. Activity of the ornithine decarboxylase inhibitors DL-α-difluoromethylornithine and monofluormethyldehydroornithine methylester alone and in combination with suramin against Trypanosoma brucei brucei central nervous system models, Am. J. Trop. Med. Hyg. (in press)). Briefly, groups of 100-120 mice were infected and the infections allowed to develop until day 21, when the animals were separated into groups of 10 and therapy commenced. Controls were treated with Berenil (40 mg/kg) on day 21. These always relapsed 40-70 days after treatment. Parasitemia was followed by examining tail vein blood smears once weekly. Animals which had relapsed were removed from cages. TREU 667 infections were followed >225 days after inoculation and LUMP 1001 were followed >280 days, as determined by the relapse pattern in previous work (Bacchi, C. J., H. C. Nathan, A. B. Clarkson, Jr., E. J. Bienen, A. J. Bitonti, P. P. McCann and A. Sjoerdsma. Activity of the ornithine decarboxylase inhibitors DL-α-difluoromethylornithine and monofluormethyldehydroornithine methylester alone and in combination with suramin against Trypanosoma brucei brucei central nervous system models. Am. J. Trop. Med. Hyg. (in press)). […]

[2] = system: Trypanosoma brucei gambiense; conditions: bone marrow tissue culture system; cited from earlier work
[3] = system: T. cruzi; conditions: previous studies; cited from earlier work
[4] = system: mouse L cells; conditions: cited from earlier work
[5] = system: T. brucei subsp.; conditions: cited from earlier work
[6] = system: Trypanosoma brucei rhodesiense; conditions: bone marrow tissue culture system; cited from earlier work
[7] = system: mammalian cells; conditions: cited from earlier work
[8] = system: bloodstream trypomastigotes; conditions: in culture; cited from earlier work
[9] = system: African trypanosomes; conditions: previous studies; cited from earlier work
[10] = system: mouse L cells; conditions: cited from earlier work; remark: listed apart in the source
[11] = system: Leishmania spp; conditions: previous studies; cited from earlier work
[12] = system: T. b. brucei EATRO 110; test: Delayed administration of 9-DINO on the EATRO 110 model (Table 2); format: in vivo, Trypanosoma brucei brucei (in Swiss-Webster mice); conditions: for # Cured/Total / % Cured: 3 days
Text: as §1
Swiss-Webster (25-30 g) mice were used throughout. […] Animals were divided into groups of 5 before treatment. Cured animals survived >30 days beyond deaths of controls. All compounds were administered by i.p. injection.

[13] = system: T. b. brucei; conditions: cited from earlier work
[14] = treatment begun 48 h post infection, 25 mg/kg i.p. daily
[15] = treatment begun 48 h post infection, 50 mg/kg i.p. daily
[16] = treatment begun 48 h post infection, 100 mg/kg i.p. daily
[17] = treatment begun 72 h post infection, 25 mg/kg i.p. daily, only fully treated animals
[18] = treatment begun 72 h post infection, 50 mg/kg i.p. daily, only fully treated animals
[19] = treatment begun 72 h post infection, 100 mg/kg i.p. daily, only fully treated animals

In the case of `O=c1[nH]cnc2c([C@@H]3O[C@H](CO)[C@@H](O)[C@H]3O)c[nH]c12` [9-DINO, 7-beta-D-ribofuranosyl-4-oxo-3H, 5H-pyrrolo (3,2-d) pyrimidine], the “# Cured/Total” value ([1]; 5 mg/kg i.p., 7 days) is reported as 0/5, the “% Cured” value ([1]; 5 mg/kg i.p., 7 days) is reported as 0% and the “Avg. Day of Relapse (Range)” value ([1]; 5 mg/kg i.p., 7 days) is reported as 41 days. For the same compound, the “# Cured/Total” value ([1]; 10 mg/kg i.p., 7 days) was 0/5, the “% Cured” value ([1]; 10 mg/kg i.p., 7 days) was 0% and the “Avg. Day of Relapse (Range)” value ([1]; 10 mg/kg i.p., 7 days) was 41 days. The “# Cured/Total” value ([1]; 25 mg/kg i.p., 7 days) was 1/5, the “% Cured” value ([1]; 25 mg/kg i.p., 7 days) was 20% and the “Avg. Day of Relapse (Range)” value ([1]; 25 mg/kg i.p., 7 days) was 60 (41-135) Day. The “# Cured/Total” value ([1]; 100 mg/kg i.p., 7 days) was 0/20, the “% Cured” value ([1]; 100 mg/kg i.p., 7 days) was 0% and the “Avg. Day of Relapse (Range)” value ([1]; 100 mg/kg i.p., 7 days) was 49 (35-58) Day. For the same compound, the “# Cured/Total” value ([1]; 250 mg/kg i.p., 7 days) was 3/10, the “% Cured” value ([1]; 250 mg/kg i.p., 7 days) was 30% and the “Avg. Day of Relapse (Range)” value ([1]; 250 mg/kg i.p., 7 days) was 68 (45-86) Day. For the same compound, the “efficacy in CNS model in words” value [1] was “did not cure CNS infections”, the activity in words [2] was “active at very low concentrations” and the activity in words [3] was “more active than allopurinol, thipurinol, and their respective nucleosides”. The toxicity in words [4] was “neither toxic for mouse L cells”, the metabolism in words [5] was “can be aminated by T. brucei subsp. and converted to analogs of ATP” and the activity in words [6] was “active at very low concentrations”. For the same compound, the “cleavage into ribose and purine analog moieties” value [7] was “cannot be cleaved into ribose and purine analog moieties”, the metabolism in words [8] was “converted to toxic adenosine nucleotide analogues” and the activity in words [9] was “more active than allopurinol, thipurinol, and their respective nucleosides”. The metabolism in words [10] was “nor metabolized to adenosine nucleotide analogues by these cells; also recorded: not metabolized to adenine nucleotide analogs”, the activity in words [11] was “more active than allopurinol, thipurinol, and their respective nucleosides” and the efficacy in words ([12]; treatment at 48 h post infection, 25 to 100 mg/kg) was “completely effective”. The “# Cured/Total” value [12, 14] was 5/5, the “% Cured” value [12, 14] was 100% and the “# Cured/Total” value [12, 15] was 5/5. For the same compound, the “% Cured” value [12, 15] was 100%, the “# Cured/Total” value [12, 16] was 5/5 and the “% Cured” value [12, 16] was 100%. The “# Cured/Total” value [12, 17] was 6/10, the “% Cured” value [12, 17] was 60% and the “# Cured/Total” value [12, 18] was 6/10. For the same compound, the “% Cured” value [12, 18] was 60%, the “# Cured/Total” value [12, 19] was 6/9 and the “% Cured” value [12, 19] was 67%. For the same compound, the activity in words ([12]; treatment delayed 48 or 72 h post infection) was “active”.

With `Nc1ncnc2c1ncn2[C@@H]1O[C@H](C[C@@H](N)CC[C@H](N)C(=O)O)[C@@H](O)[C@H]1O` [Sinefungin, 6,9-Diamino-1-(6-amino-9H-purin-9-yl)-1,5,6,7,8,9-hexadeoxy-beta-D-ribo-decofuranuronic acid] the “# Cured/Total” value ([1]; 2.5 mg/kg i.p., 4 days) was 0/18, the “% Cured” value ([1]; 2.5 mg/kg i.p., 4 days) was 0% and the “Avg. Day of Relapse (Range)” value ([1]; 2.5 mg/kg i.p., 4 days) was 39 (35-56) Day. For the same compound, the “# Cured/Total” value ([1]; 5 mg/kg i.p., 4 days) was 0/10, the “% Cured” value ([1]; 5 mg/kg i.p., 4 days) was 0% and the “Avg. Day of Relapse (Range)” value ([1]; 5 mg/kg i.p., 4 days) was 41 (35-46) Day. The “# Cured/Total” value ([1]; 10 mg/kg i.p., 3 days) was 0/10, the “% Cured” value ([1]; 10 mg/kg i.p., 3 days) was 0% and the “Avg. Day of Relapse (Range)” value ([1]; 10 mg/kg i.p., 3 days) was 38 (35-46) Day. For the same compound, the “# Cured/Total” value ([1]; 10 mg/kg i.p., 7 days) was 6/10, the “% Cured” value ([1]; 10 mg/kg i.p., 7 days) was 60% and the “Avg. Day of Relapse (Range)” value ([1]; 10 mg/kg i.p., 7 days) was 124 (35-209) Day. For the same compound, the “efficacy in CNS model in words” value [1] was “did not produce complete cures”, the “% curable” value ([13]; 3×5 mg/kg dose, 8 hour intervals) was 100% and the cure in words ([13]; multiple daily doses, Dube et al.) was “cured”.
